Here are results for 18 molecules from ChEMBL document CHEMBL4000172, “Identification of a novel 5-amino-3-(5-cyclopropylisoxazol-3-yl)-1-isopropyl-1H-pyrazole-4-carboxamide as a specific RET kinase inhibitor” (Eur J Med Chem, 2017).

A short description of data set [1]: Stability in mouse liver microsomes assessed as compound remaining at 1 uM after 15 mins. Conditions: read-out: Stability. It counts as ADME, microsome. For orientation: Liver microsomes are a subcellular fraction often used to study metabolism.
The target in data set [2] is T1, Proto-oncogene tyrosine-protein kinase receptor Ret (Homo sapiens, UniProt P07949). Put plainly: Inhibition of human RET using KKKSPGEYVNIEFG as peptide substrate in presence of [gamma33P]ATP by radiometric assay.
For data set [3], the system named is Proto-oncogene tyrosine-protein kinase receptor Ret (Homo sapiens), P07949 [V804M].
Description: Inhibition of RET V804M mutant (unknown origin) transfected in mouse Ba/F3 cells assessed as reduction in cell viability by CellTiter-Glo luminescence assay
The target of data set [4] is T1, Proto-oncogene tyrosine-protein kinase receptor Ret.
Description: Inhibition of RET (unknown origin) transfected in mouse Ba/F3 cells assessed as reduction in cell viability by CellTiter-Glo luminescence assay
In data set [5] the target is Proto-oncogene tyrosine-protein kinase receptor Ret (Homo sapiens, UniProt P07949, V804M). Put plainly: Inhibition of human RET V804M mutant using peptide substrate KKKVSRSGLYRSPS MPENLNRPR in presence of [gamma33P]ATP by radiometric assay.
In data set [6] the test system is Proto-oncogene tyrosine-protein kinase receptor Ret (Homo sapiens), P07949 [C634W].
Description: Inhibition of RET C634W mutant in human TT cells assessed as reduction in cell viability by CellTiter-Glo luminescence assay
Data set [7] in a line: Cytotoxicity against mouse BA/F3 cells assessed as reduction in cell viability by CellTiter-Glo luminescence assay. It counts as cell-based, BaF3. (In ATP-based viability assays light output follows the ATP content of the culture.)
Data set [8] can be described thus: Cytotoxicity against human Nthy-ori 3-1 cells assessed as reduction in cell viability by CellTiter-Glo luminescence assay. The format is cell-based.
The nature of data set [9]: Stability in rat liver microsomes assessed as compound remaining at 1 uM after 15 mins. Conditions: read-out: Stability. It counts as ADME, microsome.
The nature of data set [10]: Stability in rat liver microsomes assessed as compound remaining at 1 uM after 30 mins. The format is ADME, microsome. Conditions: read-out: Stability.
The nature of data set [11]: Stability in human liver microsomes assessed as compound remaining at 1 uM after 15 mins. It counts as ADME, microsome. As to conditions: read-out: Stability.
Data set [12] is described as follows: Stability in human liver microsomes assessed as compound remaining at 1 uM after 30 mins. The format is ADME, microsome. Conditions: read-out: Stability.
A short description of data set [13]: Induction of apoptosis in human Nthy-ori 3-1 cells assessed as increase in cleaved PARP level at 5 to 20 uM after 48 hrs by Western blot method. The format is cell-based. As to conditions: nthy-ori 3-1, 48 h. On the technique in general: A western blot detects proteins with antibodies after separation by electrophoresis.
The nature of data set [14]: Induction of apoptosis in human Nthy-ori 3-1 cells assessed as increase in cleaved PARP level at 5 uM after 48 hrs by Western blot method. The format is cell-based. Conditions: nthy-ori 3-1, 48 h.

Proto-oncogene tyrosine-protein kinase receptor Ret (Homo sapiens), P07949 [V804M], sequence (P07949 whole entry V804M): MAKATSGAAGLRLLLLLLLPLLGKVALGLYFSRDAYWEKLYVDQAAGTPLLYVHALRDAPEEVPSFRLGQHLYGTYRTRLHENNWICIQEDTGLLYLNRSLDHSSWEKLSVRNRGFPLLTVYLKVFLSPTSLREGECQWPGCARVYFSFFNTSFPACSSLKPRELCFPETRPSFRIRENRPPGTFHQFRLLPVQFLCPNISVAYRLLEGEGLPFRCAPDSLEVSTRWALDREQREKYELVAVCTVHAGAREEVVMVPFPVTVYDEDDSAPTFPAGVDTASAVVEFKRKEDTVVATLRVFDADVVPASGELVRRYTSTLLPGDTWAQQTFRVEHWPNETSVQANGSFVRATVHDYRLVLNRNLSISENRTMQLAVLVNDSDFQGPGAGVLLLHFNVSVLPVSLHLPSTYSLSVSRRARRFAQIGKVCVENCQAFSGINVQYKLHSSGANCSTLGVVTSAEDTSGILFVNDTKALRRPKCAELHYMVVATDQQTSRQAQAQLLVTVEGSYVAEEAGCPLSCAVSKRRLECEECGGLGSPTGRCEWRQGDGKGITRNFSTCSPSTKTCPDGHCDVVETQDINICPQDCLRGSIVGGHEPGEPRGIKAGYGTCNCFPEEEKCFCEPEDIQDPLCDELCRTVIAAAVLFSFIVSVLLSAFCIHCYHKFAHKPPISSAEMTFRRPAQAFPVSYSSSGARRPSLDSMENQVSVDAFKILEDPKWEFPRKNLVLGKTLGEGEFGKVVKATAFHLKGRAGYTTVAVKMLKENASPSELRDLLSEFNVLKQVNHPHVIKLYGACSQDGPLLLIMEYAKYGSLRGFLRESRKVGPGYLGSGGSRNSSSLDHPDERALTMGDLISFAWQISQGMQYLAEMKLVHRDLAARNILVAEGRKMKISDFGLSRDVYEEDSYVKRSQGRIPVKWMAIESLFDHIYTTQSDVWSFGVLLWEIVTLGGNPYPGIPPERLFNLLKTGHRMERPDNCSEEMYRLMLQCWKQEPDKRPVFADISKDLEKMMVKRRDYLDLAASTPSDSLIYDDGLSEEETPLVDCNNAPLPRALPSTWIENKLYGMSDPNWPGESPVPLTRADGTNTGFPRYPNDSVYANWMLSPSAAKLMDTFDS
T1 sequence (P07949 whole entry): as the sequence (P07949 whole entry V804M) above, with M804V counted along it
Proto-oncogene tyrosine-protein kinase receptor Ret (Homo sapiens, UniProt P07949, V804M), sequence (P07949 29-1114 V804M limits assumed): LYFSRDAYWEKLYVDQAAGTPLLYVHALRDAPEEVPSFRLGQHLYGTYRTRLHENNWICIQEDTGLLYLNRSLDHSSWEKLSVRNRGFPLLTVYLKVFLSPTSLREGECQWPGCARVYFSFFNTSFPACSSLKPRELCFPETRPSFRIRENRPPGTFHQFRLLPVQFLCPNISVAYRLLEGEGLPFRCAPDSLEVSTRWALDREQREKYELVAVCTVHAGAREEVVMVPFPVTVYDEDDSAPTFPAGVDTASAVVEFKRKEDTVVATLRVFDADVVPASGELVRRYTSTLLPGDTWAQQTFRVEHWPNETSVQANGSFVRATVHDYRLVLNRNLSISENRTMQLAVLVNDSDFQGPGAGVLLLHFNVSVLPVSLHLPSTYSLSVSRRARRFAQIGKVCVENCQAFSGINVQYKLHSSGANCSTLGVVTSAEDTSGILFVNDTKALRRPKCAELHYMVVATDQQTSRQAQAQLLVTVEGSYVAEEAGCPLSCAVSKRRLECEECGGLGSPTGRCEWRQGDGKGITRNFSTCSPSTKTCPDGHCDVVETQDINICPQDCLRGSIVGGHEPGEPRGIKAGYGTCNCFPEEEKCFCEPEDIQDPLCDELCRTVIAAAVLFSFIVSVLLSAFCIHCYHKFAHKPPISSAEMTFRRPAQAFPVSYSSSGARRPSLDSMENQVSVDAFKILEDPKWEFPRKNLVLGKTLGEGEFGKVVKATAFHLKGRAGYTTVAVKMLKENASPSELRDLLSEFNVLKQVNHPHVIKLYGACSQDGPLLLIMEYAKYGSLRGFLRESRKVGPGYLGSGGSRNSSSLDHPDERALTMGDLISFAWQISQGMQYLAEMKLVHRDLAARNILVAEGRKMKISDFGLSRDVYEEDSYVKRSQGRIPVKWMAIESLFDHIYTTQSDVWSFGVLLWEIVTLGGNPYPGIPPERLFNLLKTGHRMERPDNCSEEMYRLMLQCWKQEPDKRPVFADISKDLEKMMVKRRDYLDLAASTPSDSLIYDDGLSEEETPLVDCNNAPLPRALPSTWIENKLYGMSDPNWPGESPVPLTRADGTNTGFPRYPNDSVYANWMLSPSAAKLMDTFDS
Proto-oncogene tyrosine-protein kinase receptor Ret (Homo sapiens), P07949 [C634W], sequence (P07949 whole entry C634W): as the sequence (P07949 whole entry V804M) above, with C634W, M804V counted along it

With `CC(C)n1nc(-c2ccon2)c2c(N)ncnc21`, the remaining at 0.25 h, 1 µM in data set [1] worked out at 2.6%.

On to `CC(C)n1nc(-c2cc(-c3ccsc3)on2)c(C(N)=O)c1N`, for which the results for the IC50 in [2] and in [5] were 162 nM and 2900 nM, respectively. In addition, the GI50 – broadly, the concentration at which growth is held to half of that of the control – in data set [3] was over 10 µM; in [4], over 10000 nM; in data set [6] it was over 10000 nM; in data set [7], over 10 µM; in data set [8], over 10 µM. Moreover, the remaining at 0.25 h, 1 µM in data set [1] was found to be 11.8%.

On to `CC(C)n1nc(-c2cc(-c3ccc(F)cc3)on2)c(C(N)=O)c1N`, for which the concentration for half-maximal inhibition (IC50) (usually the concentration at which inhibition is half-maximal) in data set [2] amounted to 416 nM. The remaining at 0.25 h, 1 µM in [1] is 85.2%.

On to `CC(C)n1nc(-c2cc(C(C)(C)C)on2)c(C(N)=O)c1N`, for which the IC50 in data set [2] was 2220 nM. For the same molecule, the remaining at 0.25 h, 1 µM in data set [1] is 78%.

`CC(C)n1nc(-c2cc(-c3cccs3)on2)c(C(N)=O)c1N`: the IC50 in data set [2] was found to be 78 nM; in data set [5] it was 1220 nM. The GI50 in data set [3] is over 10 µM; in [4], over 10000 nM; in data set [6], over 10000 nM; in [7], over 10 µM; in [8], over 10 µM. Moreover, the remaining at 0.25 h, 1 µM in data set [1] is 32.1%.

For `CC(C)n1nc(-c2cc(C3CCCCC3)on2)c(C(N)=O)c1N`, the concentration for half-maximal inhibition (IC50) in data set [2] was 2700 nM. Besides, the remaining at 0.25 h, 1 µM in data set [1] was 40.6%.

Consider `CCc1cc(-c2nn(C(C)C)c(N)c2C(N)=O)no1`, for which, in [2], the concentration for half-maximal inhibition (IC50) was determined as 631 nM. For the same molecule, the remaining at 0.25 h, 1 µM in data set [1] is 15.1%.

As for `CC(C)c1cc(-c2nn(C(C)C)c3ncnc(N)c23)no1`, the remaining at 0.25 h, 1 µM in data set [9] worked out at 3.8%; in [1], 5.1%; in data set [11], 29%. Further, the remaining at 0.5 h, 1 µM in data set [10] was determined as 4.1%; in data set [12], 4.6%.

With `CC(C)n1nc(-c2cc(C3CC3)on2)c(C(N)=O)c1N`, the IC50 amounted to 44 nM in data set [2] and 252 nM in [5]. Also, the results for the remaining at 0.25 h, 1 µM in data set [9], in data set [1] and in data set [11] were 70%, 62.5% and 73%, respectively. The remaining at 0.5 h, 1 µM in [10] is 69%; in data set [12] it was 45.1%. Also, the GI50 in data set [3] is 6.98 µM; in [4] it was 870 nM; in data set [6] it was 1660 nM; in [7], over 10 µM; in data set [8] it was over 10 µM. In addition, in data set [13], the Activity entry is “Non-Toxic”.

Consider `COc1cc2nccc(Oc3ccc(NC(=O)C4(C(=O)Nc5ccc(F)cc5)CC4)cc3)c2cc1OC` [CABOZANTINIB], for which the 50% growth inhibitory concentration (GI50) in data set [3] was 0.74 µM; in [4], 70 nM; in data set [6], 260 nM; in data set [7], over 10 µM; in [8] it was 2.92 µM. For the same molecule, the Activity entry in [14] is on record as “Toxic”.

Turning to `CC(C)n1nc(-c2cc(-c3ccccc3)on2)c(C(N)=O)c1N`, the IC50 in data set [2] turned out to be 236 nM. The remaining at 0.25 h, 1 µM in [1] is 60.8%.

Consider `CC(C)c1cc(-c2nn(C(C)C)c(N)c2C(N)=O)no1`, for which the 50% inhibitory concentration (IC50) in [2] came out at 1260 nM. The remaining at 0.25 h, 1 µM in data set [1] came to 51.6%.

Regarding `Cc1ccc(-c2cc(-c3nn(C(C)C)c(N)c3C(N)=O)no2)cc1`, in data set [2], the IC50 is 1660 nM. Also, the remaining at 0.25 h, 1 µM in data set [1] was found to be 61.8%.

Consider `CC(C)n1nc(-c2cc(Cc3ccccc3)on2)c(C(N)=O)c1N`, for which the IC50 in data set [2] was 1640 nM. Besides, in data set [1], the remaining at 0.25 h, 1 µM is 54.6%.

With `CC(C)n1nc(-c2coc(C3CC3)n2)c2c(N)ncnc21`, the IC50 in data set [2] turned out to be 139 nM. Also, in data set [1], the remaining at 0.25 h, 1 µM was 2.8%.

Turning to `CC(C)n1nc(-c2cc(-c3ccccn3)on2)c(C(N)=O)c1N`, the IC50 in [2] turned out to be 4800 nM. In addition, in data set [1], the remaining at 0.25 h, 1 µM came out at 49%.

For `CC(C)n1nc(-c2cc(-c3cccnc3)on2)c(C(N)=O)c1N`, in [2], the IC50 was 3390 nM. For the same molecule, the remaining at 0.25 h, 1 µM in [1] stood at 86.7%.

On to `Nc1ncnc2[nH]nc(-c3cc(C4CC4)on3)c12`, for which the remaining at 0.25 h, 1 µM in data set [1] amounted to 1.4%.
